Series [1] deals with ddY male mice. The experiment in a line: Effect on pentobarbital sodium-induced sleeping time (loss of righting reflex). The conditions noted are these: test compound 10 mg/kg p.o. one hour before pentobarbital-Na 25 mg/kg s.c. It counts as in vivo. As for the experimental part: The test was conducted to examine influence of Compound (I) of the present invention on pentobarbital sodium-induced sleeping time, according to the method of Iyakuhin no Kaihatsu, Vol. 9, Iyakuhin no Tansaku I, “antihypnotic”, p. 220-226, Hirokawa Shoten.
For the test, ddY male mice (19-21 g body weight; Japan SLC, Inc.) were used. All test compounds were used by suspending in distilled water (Otsuka Pharmaceutical Factory, Inc.) containing 0.5 volume/weight % methylcellulose (0.5% MC: Wako Pure Chemical Industries, Ltd.). A volume of 0.1 mL was administered per 10 g body weight of mice.
Groups of seven mice were used. To the control groups were orally administrated 0.5% MC, whereas a suspension of the test compound was orally administered to the test compound administered groups. One hour after the administration, pentobarbital sodium (pentobarbital-Na: Tokyo Chemical Industry Co., Ltd., 25 mg/kg) was administered subcutaneously. Mouse placed in a recumbent position, the mouse immediately returns to a proper upright position (this is known as righting reflex). However, the administration of pentobarbital sodium eliminated the righting reflex in the control groups. The time period in which the administration of […] eliminated the righting reflex was regarded as a sleeping time. By a measurement of time disappearing righting reflex immediately after the administration, the sleeping time was determined.

Setting [2] is: Table 5-1, groups of seven, controls 52.12 ± 5.20 (r5) and 35.56 ± 5.21 (r11).
Setting [3] is: Table 5-2, groups of seven, controls 40.00 ± 5.32 (r5) and 45.87 ± 4.17 (r12).

With `O=C(Nc1nc(-c2ccco2)c(-c2ccncc2)s1)c1ccncc1` [Compound 1, N-[4-(2-Furyl)-5-(4-pyridyl)thiazol-2-yl]pyridine-4-carboxamide], the “Sleeping time (min) Mean value ± standard deviation” value in series [1] (setting [2]) worked out at 15.58 ± 8.50 min. The same measure, in the same setting: next, `O=C(Nc1nc(-c2ccco2)c(-c2ccncc2)s1)c1cccnc1` [Compound 5, N-[4-(2-Furyl)-5-(4-pyridyl)thiazol-2-yl]pyridine-3-carboxamide]: 0.82 ± 0.82 min; `O=C(Nc1nc(-c2ccco2)c(-c2ccncc2)s1)c1ccco1` [Compound 7, N-[4-(2-Furyl)-5-(4-pyridyl)thiazol-2-yl]furan-2-carboxamide]: 6.38 ± 4.58 min; `O=C(Nc1nc(-c2ccco2)c(-c2ccncc2)s1)c1ccoc1` [Compound 8, N-[4-(2-Furyl)-5-(4-pyridyl)thiazol-2-yl]furan-3-carboxamide]: 4.16 ± 4.16 min. In the case of `O=C(Nc1nc(-c2ccco2)c(-c2ccncc2)s1)c1ccc(Cn2ccnc2)cc1` [Compound 11, N-[4-(2-Furyl)-5-(4-pyridyl)thiazol-2-yl]-4-(imidazole-1-ylmethyl)benzamide], in series [1] (setting [2]), the “Sleeping time (min) Mean value ± standard deviation” value was found to be 22.75 ± 6.63 min.

Regarding `O=C(Nc1nc(-c2ccco2)c(C(=O)c2ccc(F)cc2)s1)c1ccncc1` [Compound 78, N-[5-(4-Fluorobenzoyl)-4-(2-furyl)thiazol-2-yl]pyridine-4-carboxamide], in series [1] (setting [3]), the “Sleeping time (min) Mean value ± standard deviation” value amounted to 8.66 ± 4.67 min. The melting point is the temperature of the solid-liquid transition. Consider `O=C(Nc1nc(-c2ccco2)c(C(=O)c2ccccn2)s1)c1ccncc1` [Compound 95, N-[4-(2-Furyl)-5-(pyridin-2-ylcarbonyl)thiazol-2-yl]pyridine-4-carboxamide], for which the melting point fell in the range of 218 to 227 °C. In addition, in series [1] (setting [2]), the “Sleeping time (min) Mean value ± standard deviation” value was 0.45 ± 0.45 min. In the case of `O=C(c1ccccn1)c1sc(NC(=O)C2CC2)nc1-c1ccco1` [Compound 99, N-[4-(2-Furyl)-5-(pyridin-2-ylcarbonyl)thiazol-2-yl]cyclopropanecarboxamide], the melting point lay in the range of 191 to 192 °C. In series [1] (setting [3]), the “Sleeping time (min) Mean value ± standard deviation” value amounted to 0.05 ± 0.02 min.

The molecule `N#Cc1ccc(C(=O)Nc2nc(-c3ccco3)c(C(=O)c3ccccn3)s2)cc1` [Compound 114, 4-Cyano-N-[4-(2-furyl)-5-(pyridin-2-ylcarbonyl)thiazol-2-yl]benzamide] returned a melting point of 232 to 235 °C. In addition, the “Sleeping time (min) Mean value ± standard deviation” value in series [1] (setting [3]) was determined as 0.63 ± 0.53 min. Turning to `Cc1ncc(C(=O)Nc2nc(-c3ccco3)c(C(=O)c3ccccn3)s2)cn1` [Compound 136, N-[4-(2-Furyl)-5-(pyridin-2-ylcarbonyl)thiazol-2-yl]-2-methylpyrimidine-5-carboxamide], the melting point was 255 to 265 °C (dec.). Moreover, the “Sleeping time (min) Mean value ± standard deviation” value in series [1] (setting [2]) came to 1.89 ± 1.81 min. In turn, `O=C(Nc1nc(-c2ccco2)c(C(=O)c2ccccn2)s1)c1ccco1` [Compound 142, N-[4-(2-Furyl)-5-(pyridin-2-ylcarbonyl)thiazol-2-yl]furan-2-carboxamide] registered a melting point of 184 to 185 °C. Moreover, the “Sleeping time (min) Mean value ± standard deviation” value in series [1] (setting [3]) turned out to be 4.52 ± 4.41 min. Take `COC(=O)Nc1nc(-c2ccco2)c(C(=O)c2ccccn2)s1` [Compound 157, Methyl N-[4-(2-furyl)-5-(pyridin-2-ylcarbonyl)thiazol-2-yl]carbamate]: the “Sleeping time (min) Mean value ± standard deviation” value in series [1] (setting [3]) is recorded as 9.39 ± 5.68 min. `O=C(Nc1nc(-c2ccco2)c(C(=O)C2CCCC2)s1)c1ccncc1` [Compound 336, N-[5-(Cyclopentylcarbonyl)-4-(2-furyl)thiazol-2-yl]pyridine-4-carboxamide]: the melting point fell in the range of 168 to 181 °C. Also, the “Sleeping time (min) Mean value ± standard deviation” value in series [1] (setting [3]) worked out at 1.60 ± 1.56 min. The matching figures for `O=C(Nc1nc(-c2ccco2)c(C(=O)C2CCOCC2)s1)c1ccncc1` [Compound 360, N-[4-(2-Furyl)-5-(tetrahydropyran-4-ylcarbonyl)thiazol-2-yl]pyridine-4-carboxamide]: 202 to 209 °C and 0.03 ± 0.02 min. As to `O=C(Nc1nc(-c2ccco2)c(C(=O)C2CCOCC2)s1)C1CC1` [Compound 361, N-[4-(2-Furyl)-5-(tetrahydropyran-4-ylcarbonyl)thiazol-2-yl]cyclopropanecarboxamide], the melting point was in the range of 182 to 183 °C. For the same molecule, the “Sleeping time (min) Mean value ± standard deviation” value in series [1] (setting [2]) is reported as 1.65 ± 1.40 min. `Cc1ccc(C(=O)Nc2nc(-c3ccco3)c(C(=O)C3CCOCC3)s2)cc1` [Compound 365, N-[4-(2-Furyl)-5-(tetrahydropyran-4-ylcarbonyl)thiazol-2-yl]-4-methylbenzamide] displayed a melting point of 190 to 192 °C. In addition, the “Sleeping time (min) Mean value ± standard deviation” value in series [1] (setting [3]) came to 0.05 ± 0.05 min. Molecule `COc1cccc(C(=O)Nc2nc(-c3ccco3)c(C(=O)C3CCOCC3)s2)c1` [Compound 367, N-[4-(2-Furyl)-5-(tetrahydropyran-4-ylcarbonyl)thiazol-2-yl]-3-methoxybenzamide] gave a melting point of 198 to 200 °C. In addition, the “Sleeping time (min) Mean value ± standard deviation” value in series [1] (setting [2]) came to 0.10 ± 0.10 min. The molecule `O=C(Nc1nc(-c2ccco2)c(C(=O)C2CCOCC2)s1)c1ccc(F)cc1` [Compound 373, 4-Fluoro-N-[4-(2-furyl)-5-(tetrahydropyran-4-ylcarbonyl)-thiazol-2-yl]benzamide] gave a melting point of 131 to 132 °C. Also, in series [1] (setting [3]), the “Sleeping time (min) Mean value ± standard deviation” value stood at 0.03 ± 0.02 min. `O=C(Nc1nc(-c2ccco2)c(C(=O)C2CCOCC2)s1)c1ccc(Cl)cc1` [Compound 376, 4-Chloro-N-[4-(2-furyl)-5-(tetrahydropyran-4-ylcarbonyl)-thiazol-2-yl]benzamide] registered a melting point of 204 to 206 °C. In series [1] (setting [2]), the “Sleeping time (min) Mean value ± standard deviation” value was determined as 0.00 ± 0.00 min. The matching figures for `O=C(Nc1nc(-c2ccco2)c(C(=O)C2CCOCC2)s1)c1ccc(Cl)nc1` [Compound 407, 2-Chloro-N-[4-(2-furyl)-5-(tetrahydropyran-4-ylcarbonyl)-thiazol-2-yl]pyridine-5-carboxamide]: 233 to 235 °C and 0.00 ± 0.00 min. Turning to `Cc1ccc(C(=O)Nc2nc(-c3ccco3)c(C(=O)C3CCOCC3)s2)cn1` [Compound 409, N-[4-(2-Furyl)-5-(tetrahydropyran-4-ylcarbonyl)thiazol-2-yl]-2-methylpyridine-5-carboxamide], the “Sleeping time (min) Mean value ± standard deviation” value in series [1] (setting [3]) is on record as 0.05 ± 0.05 min. `O=C(Nc1nc(-c2ccco2)c(C(=O)C2CCOCC2)s1)c1ccco1` [Compound 416, N-[4-(2-Furyl)-5-(tetrahydropyran-4-ylcarbonyl)thiazol-2-yl]furan-2-carboxamide] gave a melting point of 196 to 198 °C. Further, the “Sleeping time (min) Mean value ± standard deviation” value in series [1] (setting [2]) stood at 0.06 ± 0.06 min.

Molecule `N#Cc1ccc(C(=O)Nc2nc(-c3ccco3)c(C(=O)C3CCOCC3)s2)o1` [Compound 420, 5-Cyano-N-[4-(2-furyl)-5-(tetrahydropyran-4-ylcarbonyl)-thiazol-2-yl]furan-2-carboxamide] showed a melting point of 222 to 223 °C. Besides, the “Sleeping time (min) Mean value ± standard deviation” value in series [1] (setting [2]) was determined as 0.00 ± 0.00 min. For `O=C(CN1CCOCC1)Nc1nc(-c2ccco2)c(C(=O)C2CCOCC2)s1` [Compound 463, N-[4-(2-Furyl)-5-(tetrahydropyran-4-ylcarbonyl)thiazol-2-yl]-2-morpholinoacetamide], in series [1] (setting [3]), the “Sleeping time (min) Mean value ± standard deviation” value is recorded as 0.00 ± 0.00 min. Take `O=C(Nc1nc(-c2ccco2)c(C(=O)c2ccccc2)s1)c1ccncc1` [Compound 508, N-[5-Benzoyl-4-(2-furyl)thiazol-2-yl]pyridine-4-carboxamide]: the “Sleeping time (min) Mean value ± standard deviation” value in series [1] (setting [3]) turned out to be 14.26 ± 4.35 min.

For the origin of these results see patent US7928098B2, “Therapeutic and/or preventive agents for a sleep disorder” (Kyowa Hakko Kirin Co., Ltd., priority 2005, dated 2011).
